Results published in ChEMBL document CHEMBL3885881, “DrugMatrix”.

Organism: Rattus norvegicus
Test: DrugMatrix - Regimen: Daily Repeat
Type: toxicity, organism-based, Sprague-Dawley
Set-up: regimen Daily Repeat, gender Male, age 6-8 weeks
Details: in vivo, po, route oral GAVAGE, vehicle 100 % WATER; for ABSOLUTE BASOPHIL / ABSOLUTE EOSINOPHIL / ABSOLUTE LYMPHOCYTE / ABSOLUTE MONOCYTE / ABSOLUTE SEGMENTED NEUTROPHIL / BASOPHIL / EOSINOPHIL / ERYTHROCYTE COUNT / HEMATOCRIT / HEMOGLOBIN / LEUKOCYTE COUNT / LYMPHOCYTE / MEAN CORPUSCULAR HEMOGLOBIN / MEAN CORPUSCULAR HEMOGLOBIN CONCENTRATION / MEAN CORPUSCULAR VOLUME / MONOCYTE / NEUTROPHIL / NUCLEATED RED BLOOD CELLS / PLATELET COUNT: tissue Blood; for ALANINE AMINOTRANSFERASE / ALBUMIN / ALKALINE PHOSPHATASE / ASPARTATE AMINOTRANSFERASE / BLOOD UREA NITROGEN / CARBON DIOXIDE / CHLORIDE / CHOLESTEROL / CREATINE PHOSPHOKINASE / CREATININE / GLUCOSE / LACTATE DEHYDROGENASE / LIPASE / PHOSPHORUS / POTASSIUM / SODIUM / TOTAL BILIRUBIN / TOTAL PROTEIN / URIC ACID: tissue Plasma
[1] = 28 mg/kg, 120 h, dose level Low, time 5 day
[2] = 100 mg/kg, 72 h, dose level High, time 3 day
[3] = 100 mg/kg, 120 h, dose level High, time 5 day

SMILES: Cn1cc[nH]c1=S [METHIMAZOLE]
- ABSOLUTE BASOPHIL [1]: 0 CELLS/uL
- ABSOLUTE EOSINOPHIL [1]: 0 CELLS/uL
- ABSOLUTE LYMPHOCYTE [1]: 6311.33 CELLS/uL
- ABSOLUTE MONOCYTE [1]: 62 CELLS/uL
- ABSOLUTE SEGMENTED NEUTROPHIL [1]: 560 CELLS/uL
- BASOPHIL [1]: 0%
- EOSINOPHIL [1]: 0%
- ERYTHROCYTE COUNT [1]: 5.37 x10E6/uL
- HEMATOCRIT [1]: 33.8%
- HEMOGLOBIN [1]: 13.17 G/DL
- LEUKOCYTE COUNT [1]: 6.93 x10E3/uL
- LYMPHOCYTE [1]: 90.67%
- MEAN CORPUSCULAR HEMOGLOBIN [1]: 24.57 pg
- MEAN CORPUSCULAR HEMOGLOBIN CONCENTRATION [1]: 38.93 G/DL
- MEAN CORPUSCULAR VOLUME [1]: 63.03 fL
- MONOCYTE [1]: 0.67%
- NEUTROPHIL [1]: 8.67%
- NUCLEATED RED BLOOD CELLS [1]: 0.33 /100WBC
- PLATELET COUNT [1]: 1274.33 x10E3/uL
- ALANINE AMINOTRANSFERASE [1]: 41.33 u/L
- ALBUMIN [1]: 4.13 G/DL
- ALKALINE PHOSPHATASE [1]: 368.67 u/L
- ASPARTATE AMINOTRANSFERASE [1]: 68.67 u/L
- BLOOD UREA NITROGEN [1]: 19.67 mg/dL
- CARBON DIOXIDE [1]: 30.33 mmol/L
- CHLORIDE [1]: 101 MEQ/L
- CHOLESTEROL [1]: 101.33 mg/dL
- CREATINE PHOSPHOKINASE [1]: 173 u/L
- CREATININE [1]: 0.18 mg/dL
- GLUCOSE [1]: 143.67 mg/dL
- LACTATE DEHYDROGENASE [1]: 143.67 u/L
- LIPASE [1]: 9 u/L
- PHOSPHORUS [1]: 10.27 mg/dL
- POTASSIUM [1]: 4.87 MEQ/L
- SODIUM [1]: 144.47 MEQ/L
- TOTAL BILIRUBIN [1]: 0.17 mg/dL
- TOTAL PROTEIN [1]: 6.43 G/DL
- URIC ACID [1]: 0.53 mg/dL
- ABSOLUTE BASOPHIL [2]: 0 CELLS/uL
- ABSOLUTE EOSINOPHIL [2]: 0 CELLS/uL
- ABSOLUTE LYMPHOCYTE [2]: 13500.67 CELLS/uL
- ABSOLUTE MONOCYTE [2]: 119.33 CELLS/uL
- ABSOLUTE SEGMENTED NEUTROPHIL [2]: 980 CELLS/uL
- BASOPHIL [2]: 0%
- EOSINOPHIL [2]: 0%
- ERYTHROCYTE COUNT [2]: 5.56 x10E6/uL
- HEMATOCRIT [2]: 35.97%
- HEMOGLOBIN [2]: 14.1 G/DL
- LEUKOCYTE COUNT [2]: 14.6 x10E3/uL
- LYMPHOCYTE [2]: 92.67%
- MEAN CORPUSCULAR HEMOGLOBIN [2]: 25.4 pg
- MEAN CORPUSCULAR HEMOGLOBIN CONCENTRATION [2]: 39.2 G/DL
- MEAN CORPUSCULAR VOLUME [2]: 64.73 fL
- MONOCYTE [2]: 1%
- NEUTROPHIL [2]: 6.33%
- NUCLEATED RED BLOOD CELLS [2]: 0.67 /100WBC
- PLATELET COUNT [2]: 1423.33 x10E3/uL
- ALANINE AMINOTRANSFERASE [2]: 46.33 u/L
- ALBUMIN [2]: 4.03 G/DL
- ALKALINE PHOSPHATASE [2]: 326.67 u/L
- ASPARTATE AMINOTRANSFERASE [2]: 72 u/L
- BLOOD UREA NITROGEN [2]: 11 mg/dL
- CARBON DIOXIDE [2]: 26 mmol/L
- CHLORIDE [2]: 103 MEQ/L
- CHOLESTEROL [2]: 84.67 mg/dL
- CREATINE PHOSPHOKINASE [2]: 581 u/L
- CREATININE [2]: 0.17 mg/dL
- GLUCOSE [2]: 154.33 mg/dL
- LACTATE DEHYDROGENASE [2]: 228.33 u/L
- LIPASE [2]: 9 u/L
- PHOSPHORUS [2]: 11.6 mg/dL
- POTASSIUM [2]: 6.41 MEQ/L
- SODIUM [2]: 143.17 MEQ/L
- TOTAL BILIRUBIN [2]: 0.17 mg/dL
- TOTAL PROTEIN [2]: 5.97 G/DL
- URIC ACID [2]: 1.63 mg/dL
- ABSOLUTE BASOPHIL [3]: 0 CELLS/uL
- ABSOLUTE EOSINOPHIL [3]: 40.33 CELLS/uL
- ABSOLUTE LYMPHOCYTE [3]: 11963 CELLS/uL
- ABSOLUTE MONOCYTE [3]: 169.33 CELLS/uL
- ABSOLUTE SEGMENTED NEUTROPHIL [3]: 727.33 CELLS/uL
- BASOPHIL [3]: 0%
- EOSINOPHIL [3]: 0.33%
- ERYTHROCYTE COUNT [3]: 5.44 x10E6/uL
- HEMATOCRIT [3]: 33.7%
- HEMOGLOBIN [3]: 13.17 G/DL
- LEUKOCYTE COUNT [3]: 12.9 x10E3/uL
- LYMPHOCYTE [3]: 93%
- MEAN CORPUSCULAR HEMOGLOBIN [3]: 24.23 pg
- MEAN CORPUSCULAR HEMOGLOBIN CONCENTRATION [3]: 39.1 G/DL
- MEAN CORPUSCULAR VOLUME [3]: 61.97 fL
- MONOCYTE [3]: 1.33%
- NEUTROPHIL [3]: 5.33%
- NUCLEATED RED BLOOD CELLS [3]: 0 /100WBC
- PLATELET COUNT [3]: 1288.67 x10E3/uL
- ALANINE AMINOTRANSFERASE [3]: 33.33 u/L
- ALBUMIN [3]: 3.97 G/DL
- ALKALINE PHOSPHATASE [3]: 316.33 u/L
- ASPARTATE AMINOTRANSFERASE [3]: 51.33 u/L
- BLOOD UREA NITROGEN [3]: 17.33 mg/dL
- CARBON DIOXIDE [3]: 21 mmol/L
- CHLORIDE [3]: 104.67 MEQ/L
- CHOLESTEROL [3]: 79.67 mg/dL
- CREATINE PHOSPHOKINASE [3]: 460 u/L
- CREATININE [3]: 0.19 mg/dL
- GLUCOSE [3]: 165.33 mg/dL
- LACTATE DEHYDROGENASE [3]: 433 u/L
- LIPASE [3]: 11.33 u/L
- PHOSPHORUS [3]: 10.1 mg/dL
- POTASSIUM [3]: 5.88 MEQ/L
- SODIUM [3]: 143.5 MEQ/L
- TOTAL BILIRUBIN [3]: 0.2 mg/dL
- TOTAL PROTEIN [3]: 6.17 G/DL
- URIC ACID [3]: 1.43 mg/dL
